From patent US11352368B2, “Salt of fused ring pyrimidine compound, crystal form thereof and preparation method therefor and use thereof” (GUANGZHOU MAXINOVEL PHARMACEUTICALS CO., LTD., priority 2018, dated 2022)
In brackets after ≈: the same amount, converted by molar mass. Where a name gives a salt, the structure may show the parent alone. Read-outs that look alike come from different tables or passages of the source. Each block holds one molecule with its values, some of them ahead of it.

What was measured:
[1] = Dynamic vapor sorption analysis (DVS); assay type: physicochemical; conditions: for XRPD of samples after DVS test: XRPD diffraction peaks before and after DVS test; for DVS weight gain from 0% RH to 95% RH: 25° C., 0% to 95% relative humidity, weight percentage
Description: (§1) 10 mg of the crystal form A of the fumarate of fused ring pyrimidine compound as shown in formula 2 was weighed, and dried for 60 min under the condition of a temperature of 25° C. and a humidity of 0% RH, and then the humidity absorption characteristic of the sample was tested when the humidity changed from 0% RH to 95% RH, and the dehumidification characteristic of the sample was tested when the humidity changed from 95% RH to 0% RH. Each step length for the humidity changes was 5% RH, the balance standard was that the weight change rate was less than 0.01%/min within 5 min, and the longest balance time was 2 hours.
as §1, with “form B” for “form A”, “the adipate” for “the fumarate”, “formula 3” for “formula 2”

[2] = Solubility test of the salts in pure water (Example 6); assay type: physicochemical; conditions: for saturated solubility: room temperature, balancing about 20 hours, HPLC; for solubility in pure water compared with the free base: versus free base of the fused ring pyrimidine compound
Description: 2.0 mg of sample was precisely weighed into a liquid phase vial, 1.0 mL of purified water was added, the vial was subjected to ultrasonic treatment for about 30 seconds to disperse the samples evenly, then the vial was placed on a Labquaker rotator, and slowly rotated at room temperature for balancing. After balancing for about 20 hours, each vial was removed, and the solution was filtered with 0.45 μm nylon filter membrane. The filtrate was diluted by DMSO or not diluted and then detected by HPLC. At the same time, two parts of fused ring pyrimidine compounds were weighed and dissolved in DMSO to make standard solutions with concentration of 250 μg/mL and 500 μg/mL, respectively. The standard solutions were subjected to the HPLC detection. The sample concentration vs the peak area of HPLC principal component was used for make a standard curve, and the solubility of each sample in pure water was calculated by a external standard method.

[3] = Solubility test of crystal form A and crystal form B in a medium (Example 12); assay type: physicochemical; conditions: for solubility: thermodynamic from solid, read-out: Solubility (calculated by free base of the fused ring pyrimidine compound); for Solubility (calculated by free base of the fused ring pyrimidine compound): in mg/mL (unit assumed); for solubility in pure water compared to free base: versus free base of the fused ring pyrimidine compound
Excerpt: Example 12 Solubility Test of the Crystal Form A of the Fumarate of Fused Ring Pyrimidine Compound as Shown in Formula 2 and the Crystal Form B of the Adipate of Fused Ring Pyrimidine Compound as Shown in Formula 3 in a Medium

[4] = Pharmacokinetic experiment, single intragastric dose in rats; assay type: in vivo, SD rats; conditions: single dose 10 mg/kg, 0.5% MC and 0.5% Tween80 in water
Description: 1) Preparation of animals 9 healthy male SD rats, each with a body weight of 220-230 g, were taken, fed with standard formulated granulated feed for rats at fixed times every day, and fasted for 12 hours before the experiment, and feeding was resumed after 4 hours of administration. Rats were free to drink water before, after and during the experiment. 9 rats were randomly divided into 3 groups.
2) Formulation of drugs: The fused ring pyrimidine compound as shown in formula 1, the crystal form A of the fumarate of fused ring pyrimidine compound as shown in formula 2 and the crystal form B of the adipate of fused ring pyrimidine compound as shown in formula 3 were accurately weighed, and were formulated into a 1 mg/mL solution in water (Wahaha/111830) with 0.5% MC (Fluka/BCBK3534K) and 0.5% Tween80 (TCl/V4FSC), respectively.
3) Intragastric administration with single dose (10 mg/kg): in the first group, rats were intragastrically administered with a solution of the fused ring pyrimidine compound as shown in formula 1, in the second group, rats were intragastrically administered with a solution of the crystal form A of the fumarate of fused ring pyrimidine compound as shown in formula 2, and in the third group, rats were intragastrically administered with a solution of the crystal form B of the adipate of fused ring pyrimidine compound as shown in formula 3.
4) Collection of blood samples: About 150 μL of blood was taken from the fundus venous plexus before administration and 0.083, 0.25, 0.5, 1, 2, 4, 8 and 24 hours after administration from each rat in the three groups, and anticoagulated with K2EDTA, plasma was separated by centrifugation and the supernatant was collected for LC-MS analysis.

[5] = Stability test (total impurities, 20 days); assay type: physicochemical; conditions: for chemical stability in the condition of high temperature and high humidity / stability under light conditions versus the compound of formula 1: 20 days
Description: The crystal form A of the fumarate of fused ring pyrimidine compound as shown in formula 2, the crystal form B of the adipate of fused ring pyrimidine compound as shown in formula 3 and the fused ring pyrimidine compound as shown in formula 1 were subjected to tests at a high temperature of 60° C., 25° C./60% RH, 40° C./75% RH and highlight irradiation (4500 lx±500 lx), the test time was 20 days, the sample bottles were placed under different test conditions, and samples were taken at 0 and 20 days to detect the total amount of impurities, and the test results were shown in Table 8 below.

[6] = listed as The tartrate of fused ring pyrimidine compound as shown in formula 5
[7] = listed as The phosphate of fused ring pyrimidine compound as shown in formula 4
[8] = listed as The fumarate of fused ring pyrimidine compound as shown in formula 2
[9] = medium intestinal fluid in simulated fed state (FeSSIF)
[10] = medium pH 4 (50 mM phosphate buffer)
[11] = medium pH 6 (50 mM phosphate buffer)

Compound: COc1cc(F)ccc1-c1c(C)sc2cnc(Nc3cnn(C4CCNCC4)c3)nc12 [Example 2]
saturated solubility [2]: 520 µg/mL
solubility in pure water compared with the free base [2]: significantly improved

Compound: COc1cc(F)ccc1-c1c(C)sc2cnc(Nc3cnn(C4CCNCC4)c3)nc12
solubility ([3]; 50 mM phosphate buffer, pH 6, aqueous buffer, medium pH 6 (50 mM phosphate buffer)): 36 µg/mL (≈ 82.1 µM)
solubility ([3]; FeSSIF, medium intestinal fluid in simulated fed state (FeSSIF)): 1910 µg/mL (≈ 4350 µM)

Compound: COc1cc(F)ccc1-c1c(C)sc2cnc(Nc3cnn(C4CCNCC4)c3)nc12 [Example 1]
DVS: Moisture-absorption weight gain at 85% RH [1, 8]: 85% RH: 0.324%
DVS: Moisture-absorption weight gain at 95% RH [1, 8]: 95% RH: 0.404%
XRPD of samples after DVS test [1, 8]: consistent
DVS: Weight loss in drying stage [1, 8]: drying stage: 0.117%
saturated solubility [2]: 170 µg/mL
solubility in pure water compared with the free base [2]: significantly improved

Further lines, results first:

DVS: Moisture-absorption weight gain at 85% RH [1, 6]: 85% RH: 8.390%
DVS: Moisture-absorption weight gain at 95% RH [1, 6]: 95% RH: 8.659%
DVS: Weight loss in drying stage [1, 6]: drying stage: 5.88%
saturated solubility [2]: 146 µg/mL
solubility in pure water compared with the free base [2]: significantly improved
Compound: COc1cc(F)ccc1-c1c(C)sc2cnc(Nc3cnn(C4CCNCC4)c3)nc12 [Example 4]

DVS: Moisture-absorption weight gain at 85% RH [1, 7]: 85% RH: 6.95%
DVS: Moisture-absorption weight gain at 95% RH [1, 7]: 95% RH: 12.15%
XRPD of samples after DVS test [1, 7]: consistent
DVS: Weight loss in drying stage [1, 7]: drying stage: 0.752%
saturated solubility [2]: 675 µg/mL
solubility in pure water compared with the free base [2]: significantly improved
Compound: COc1cc(F)ccc1-c1c(C)sc2cnc(Nc3cnn(C4CCNCC4)c3)nc12 [Example 3]

Blood drug concentration (AUC) [4]: 999 ng·h/mL
solubility in intestinal fluid (FeSSIF) in simulated fed state, in words ([3]; FeSSIF): high
pH value of sample solution for solubility ([3]; medium Purified water): 7.27
Solubility (calculated by free base of the fused ring pyrimidine compound) ([3]; medium Purified water): 0.126
pH value of sample solution for solubility [3, 9]: 5.19
pH value of sample solution for solubility [3, 10]: 4.33
Solubility (calculated by free base of the fused ring pyrimidine compound) [3, 10]: 0.159
pH value of sample solution for solubility [3, 11]: 5.96
solubility in pure water compared to free base [3]: significantly improved
Impurity content ([5]; Day 0): 0.25%
Impurity content ([5]; Day 20, 25° C/60% RH): 0.25%
Impurity content ([5]; Day 20, 40° C/75% RH): 0.28%
Impurity content ([5]; Day 20, 60° C): 0.25%
Impurity content ([5]; Day 20, Light (4500 lx±500 lx)): 0.46%
chemical stability in the condition of high temperature and high humidity [5]: good chemical stability
stability under light conditions versus the compound of formula 1 [5]: significantly higher
DVS weight gain from 0% RH to 95% RH [1]: 0.2518%
Compound: COc1cc(F)ccc1-c1c(C)sc2cnc(Nc3cnn(C4CCNCC4)c3)nc12 [The crystal form A of the fumarate of fused ring pyrimidine ]

Blood drug concentration (AUC) [4]: 1038 ng·h/mL
pH value of sample solution for solubility ([3]; medium Purified water): 7.09
Solubility (calculated by free base of the fused ring pyrimidine compound) ([3]; medium Purified water): 0.463
pH value of sample solution for solubility [3, 9]: 5.2
Solubility (calculated by free base of the fused ring pyrimidine compound) [3, 9]: 1.46
pH value of sample solution for solubility [3, 10]: 4.85
Solubility (calculated by free base of the fused ring pyrimidine compound) [3, 10]: 0.104
pH value of sample solution for solubility [3, 11]: 6.01
Solubility (calculated by free base of the fused ring pyrimidine compound) [3, 11]: 0.035
solubility in pure water compared to free base [3]: significantly improved
Impurity content ([5]; Day 0): 0.24%
Impurity content ([5]; Day 20, 25° C/60% RH): 0.22%
Impurity content ([5]; Day 20, 40° C/75% RH): 0.22%
Impurity content ([5]; Day 20, 60° C): 0.23%
Impurity content ([5]; Day 20, Light (4500 lx±500 lx)): 0.42%
chemical stability in the condition of high temperature and high humidity [5]: good chemical stability
stability under light conditions versus the compound of formula 1 [5]: significantly higher
DVS weight gain from 0% RH to 95% RH [1]: 2.751%
Compound: COc1cc(F)ccc1-c1c(C)sc2cnc(Nc3cnn(C4CCNCC4)c3)nc12 [The crystal form B of the adipate of fused ring pyrimidine c]
